{"source": "the supplement of paper PMC11208160"}
{"assay": "recombinant UMI read abundance after kanamycin selection (control-corrected) (log10(CPM+1)); higher = more efficient recombination; extreme values may be limits of the assay; sequences stand for … in AGTGCAGAGAAAATCGGCCAGTTTTCTCTGCCTGCAGTCCGCATGCCGTGGGACCCCTTGGGTTCTAACCTGTTGCCTAGATTTATGCAGCGGACTGCCTTTCTCCCAAAGTGATAAACCGG…AGGTTGGTTTCACT; site = the 11-nt donor", "in_short": "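Values, expressed as log10(CPM+1), derive from recombinant UMI counts converted to CPM, averaged across replicates and scaled by control-derived factors. Plating was with IPTG (0.07 mM) plus kanamycin or unselected, two replicates each. The screen pooled donor and donor-binding-loop pairs for the IS621 bridge recombinase in Escherichia coli.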"}
{"sequence": "TAGTGAGCATGGACCGGTTTTCCCGGTAATCCGTATTTGGG (site TAGTGAGCTCC)", "recombinant UMI read abundance (log10)": 0.0293}
{"sequence": "TAGTGAGCATGGACCGGTTTTCCCGGTAATCCGTATTTGGG (site TATTGAGCTCC)", "recombinant UMI read abundance (log10)": 0}
{"sequence": "TAGTGGACATGGACCGGTTTTCCCGGTAATCCGTATTTGTT (site TAGTGGACTAA)", "recombinant UMI read abundance (log10)": 1.38}
{"sequence": "TAGTGTACATGGACCGGTTTTCCCGGTAATCCGTATTTGAT (site TAGTGTACTAT)", "recombinant UMI read abundance (log10)": 0.856}
{"sequence": "TATAAAGCATGGACCGGTTTTCCCGGTAATCCGTATTTGGA (site TATAAAGCTTC)", "recombinant UMI read abundance (log10)": 0.646}
{"sequence": "TATAATACATGGACCGGTTTTCCCGGTAATCCGTATTTGCA (site TAAAATACTTG)", "recombinant UMI read abundance (log10)": 1.04}
{"sequence": "TATAATACATGGACCGGTTTTCCCGGTAATCCGTATTTGCA (site TACAATACTTG)", "recombinant UMI read abundance (log10)": 0.35}
{"sequence": "TATAATACATGGACCGGTTTTCCCGGTAATCCGTATTTGCA (site TAGAATACTTG)", "recombinant UMI read abundance (log10)": 2.6}
{"sequence": "TATAATACATGGACCGGTTTTCCCGGTAATCCGTATTTGCA (site TATAATACTTG)", "recombinant UMI read abundance (log10)": 0.242}
{"sequence": "TATACTGCATGGACCGGTTTTCCCGGTAATCCGTATTTGCT (site TATACTGCTAG)", "recombinant UMI read abundance (log10)": 1.63}
{"sequence": "TATAGCGCATGGACCGGTTTTCCCGGTAATCCGTATTTGTC (site TATAGCGCTGA)", "recombinant UMI read abundance (log10)": 2.62}
{"sequence": "TATAGTCCATGGACCGGTTTTCCCGGTAATCCGTATTTGTA (site TAAAGTCCTTA)", "recombinant UMI read abundance (log10)": 0.605}
{"sequence": "TATAGTCCATGGACCGGTTTTCCCGGTAATCCGTATTTGTA (site TACAGTCCTTA)", "recombinant UMI read abundance (log10)": 0.121}
{"sequence": "TATAGTCCATGGACCGGTTTTCCCGGTAATCCGTATTTGTA (site TAGAGTCCTTA)", "recombinant UMI read abundance (log10)": 0.0216}
{"sequence": "TATAGTCCATGGACCGGTTTTCCCGGTAATCCGTATTTGTA (site TATAGTCCTTA)", "recombinant UMI read abundance (log10)": 0.432}
{"sequence": "TATCAAACATGGACCGGTTTTCCCGGTAATCCGTATTTGGC (site TATCAAACTGC)", "recombinant UMI read abundance (log10)": 0}
{"sequence": "TATCACACATGGACCGGTTTTCCCGGTAATCCGTATTTGTC (site TATCACACTGA)", "recombinant UMI read abundance (log10)": 1.5}
{"sequence": "TATCAGCCATGGACCGGTTTTCCCGGTAATCCGTATTTGTT (site TATCAGCCTAA)", "recombinant UMI read abundance (log10)": 0.0212}
{"sequence": "TATCCATCATGGACCGGTTTTCCCGGTAATCCGTATTTGCG (site TATCCATCTCG)", "recombinant UMI read abundance (log10)": 0.52}
{"sequence": "TATCGAGCATGGACCGGTTTTCCCGGTAATCCGTATTTGTC (site TATCGAGCTGA)", "recombinant UMI read abundance (log10)": 2.55}
{"sequence": "TATCGTCCATGGACCGGTTTTCCCGGTAATCCGTATTTGCG (site TATCGTCCTCG)", "recombinant UMI read abundance (log10)": 0.0127}
{"sequence": "TATCTCACATGGACCGGTTTTCCCGGTAATCCGTATTTGTC (site TATCTCACTGA)", "recombinant UMI read abundance (log10)": 1.44}
{"sequence": "TATCTTCCATGGACCGGTTTTCCCGGTAATCCGTATTTGGT (site TATCTTCCTAC)", "recombinant UMI read abundance (log10)": 0.00632}
{"sequence": "TATGCGACATGGACCGGTTTTCCCGGTAATCCGTATTTGCT (site TATGCGACTAG)", "recombinant UMI read abundance (log10)": 1.27}
{"sequence": "TATGCTGCATGGACCGGTTTTCCCGGTAATCCGTATTTGGA (site TATGCTGCTTC)", "recombinant UMI read abundance (log10)": 0.0199}
{"sequence": "TATGGACCATGGACCGGTTTTCCCGGTAATCCGTATTTGCA (site TATGGACCTTG)", "recombinant UMI read abundance (log10)": 0}
{"sequence": "TATGGGTCATGGACCGGTTTTCCCGGTAATCCGTATTTGCT (site TATGGGTCTAG)", "recombinant UMI read abundance (log10)": 2.88}
{"sequence": "TATGTAACATGGACCGGTTTTCCCGGTAATCCGTATTTGCT (site AATGTAACTAG)", "recombinant UMI read abundance (log10)": 0.864}
{"sequence": "TATGTAACATGGACCGGTTTTCCCGGTAATCCGTATTTGCT (site CATGTAACTAG)", "recombinant UMI read abundance (log10)": 1.18}
{"sequence": "TATGTAACATGGACCGGTTTTCCCGGTAATCCGTATTTGCT (site GATGTAACTAG)", "recombinant UMI read abundance (log10)": 1.67}
{"sequence": "TATGTAACATGGACCGGTTTTCCCGGTAATCCGTATTTGCT (site TATGTAACTAG)", "recombinant UMI read abundance (log10)": 2.06}
{"sequence": "TATGTATCATGGACCGGTTTTCCCGGTAATCCGTATTTGCC (site TATGTATCTGG)", "recombinant UMI read abundance (log10)": 2.66}
{"sequence": "TATGTGGCATGGACCGGTTTTCCCGGTAATCCGTATTTGAA (site TATGTGGCTTT)", "recombinant UMI read abundance (log10)": 0.784}
{"sequence": "TATGTGGCATGGACCGGTTTTCCCGGTAATCCGTATTTGTG (site TATATGGCTCA)", "recombinant UMI read abundance (log10)": 0.00536}
{"sequence": "TATGTGGCATGGACCGGTTTTCCCGGTAATCCGTATTTGTG (site TATCTGGCTCA)", "recombinant UMI read abundance (log10)": 0.0111}
{"sequence": "TATGTGGCATGGACCGGTTTTCCCGGTAATCCGTATTTGTG (site TATGTGGCTCA)", "recombinant UMI read abundance (log10)": 0.00847}
{"sequence": "TATGTGGCATGGACCGGTTTTCCCGGTAATCCGTATTTGTG (site TATTTGGCTCA)", "recombinant UMI read abundance (log10)": 0.0197}
{"sequence": "TATTAACCATGGACCGGTTTTCCCGGTAATCCGTATTTGCC (site TATTAACCTGG)", "recombinant UMI read abundance (log10)": 0}
{"sequence": "TATTCAACATGGACCGGTTTTCCCGGTAATCCGTATTTGCC (site TATTCAACTGG)", "recombinant UMI read abundance (log10)": 0.527}
{"sequence": "TATTCGGCATGGACCGGTTTTCCCGGTAATCCGTATTTGGT (site TATTCGGCTAC)", "recombinant UMI read abundance (log10)": 0}
{"sequence": "TATTCTGCATGGACCGGTTTTCCCGGTAATCCGTATTTGGA (site TATTCTGCTTC)", "recombinant UMI read abundance (log10)": 0.603}
{"sequence": "TATTTAGCATGGACCGGTTTTCCCGGTAATCCGTATTTGTG (site TATTTAGCTCA)", "recombinant UMI read abundance (log10)": 0.31}
{"sequence": "TATTTAGCATGGACCGGTTTTCCCGGTAATCCGTATTTGTG (site TATTTCGCTCA)", "recombinant UMI read abundance (log10)": 0.026}
{"sequence": "TATTTAGCATGGACCGGTTTTCCCGGTAATCCGTATTTGTG (site TATTTGGCTCA)", "recombinant UMI read abundance (log10)": 0.0112}
{"sequence": "TATTTAGCATGGACCGGTTTTCCCGGTAATCCGTATTTGTG (site TATTTTGCTCA)", "recombinant UMI read abundance (log10)": 0.0238}
{"sequence": "TATTTGGCATGGACCGGTTTTCCCGGTAATCCGTATTTGGG (site TATTTGGCTCA)", "recombinant UMI read abundance (log10)": 0}
{"sequence": "TATTTGGCATGGACCGGTTTTCCCGGTAATCCGTATTTGGG (site TATTTGGCTCC)", "recombinant UMI read abundance (log10)": 0.0427}
{"sequence": "TATTTGGCATGGACCGGTTTTCCCGGTAATCCGTATTTGGG (site TATTTGGCTCG)", "recombinant UMI read abundance (log10)": 0.0185}
{"sequence": "TATTTGGCATGGACCGGTTTTCCCGGTAATCCGTATTTGGG (site TATTTGGCTCT)", "recombinant UMI read abundance (log10)": 0.0188}
{"sequence": "TCAAATTCATGGACCGGTTTTCCCGGTAATCCGTATTTGCC (site TCAAATTCTGG)", "recombinant UMI read abundance (log10)": 0.558}
{"sequence": "TCAAATTCATGGACCGGTTTTCCCGGTAATCCGTATTTGCC (site TCCAATTCTGG)", "recombinant UMI read abundance (log10)": 0}
{"sequence": "TCAAATTCATGGACCGGTTTTCCCGGTAATCCGTATTTGCC (site TCGAATTCTGG)", "recombinant UMI read abundance (log10)": 0}
{"sequence": "TCAAATTCATGGACCGGTTTTCCCGGTAATCCGTATTTGCC (site TCTAATTCTGG)", "recombinant UMI read abundance (log10)": 0}
{"sequence": "TCAACCCCATGGACCGGTTTTCCCGGTAATCCGTATTTGGT (site TCAACCCCTAC)", "recombinant UMI read abundance (log10)": 0}
{"sequence": "TCAACGTCATGGACCGGTTTTCCCGGTAATCCGTATTTGCA (site TCAACGTCTTG)", "recombinant UMI read abundance (log10)": 0}
{"sequence": "TCAAGAACATGGACCGGTTTTCCCGGTAATCCGTATTTGGG (site TCAAGAACTCC)", "recombinant UMI read abundance (log10)": 0.301}
{"sequence": "TCACACACATGGACCGGTTTTCCCGGTAATCCGTATTTGAT (site TCACACACTAT)", "recombinant UMI read abundance (log10)": 1.33}
{"sequence": "TCACACACATGGACCGGTTTTCCCGGTAATCCGTATTTGTG (site TCACACACTCA)", "recombinant UMI read abundance (log10)": 0.198}
{"sequence": "TCACACTCATGGACCGGTTTTCCCGGTAATCCGTATTTGCA (site TCAAACTCTTG)", "recombinant UMI read abundance (log10)": 0}
{"sequence": "TCACACTCATGGACCGGTTTTCCCGGTAATCCGTATTTGCA (site TCACACTCTTG)", "recombinant UMI read abundance (log10)": 2.68}
{"sequence": "TCACACTCATGGACCGGTTTTCCCGGTAATCCGTATTTGCA (site TCAGACTCTTG)", "recombinant UMI read abundance (log10)": 0}
{"sequence": "TCACACTCATGGACCGGTTTTCCCGGTAATCCGTATTTGCA (site TCATACTCTTG)", "recombinant UMI read abundance (log10)": 1.85}
{"sequence": "TCACGACCATGGACCGGTTTTCCCGGTAATCCGTATTTGTG (site TCACGACCTCA)", "recombinant UMI read abundance (log10)": 0.0189}
{"sequence": "TCACGGCCATGGACCGGTTTTCCCGGTAATCCGTATTTGGT (site TCACGGCCTAC)", "recombinant UMI read abundance (log10)": 0.00583}
{"sequence": "TCACTAACATGGACCGGTTTTCCCGGTAATCCGTATTTGGA (site TCACTAACTTC)", "recombinant UMI read abundance (log10)": 0.957}
{"sequence": "TCACTATCATGGACCGGTTTTCCCGGTAATCCGTATTTGCA (site ACAGTATCTTG)", "recombinant UMI read abundance (log10)": 0}
{"sequence": "TCACTATCATGGACCGGTTTTCCCGGTAATCCGTATTTGCA (site TCACTATCTTG)", "recombinant UMI read abundance (log10)": 2.41}
{"sequence": "TCACTCGCATGGACCGGTTTTCCCGGTAATCCGTATTTGAA (site TCACTCGCTTT)", "recombinant UMI read abundance (log10)": 1.86}
